From US8105797B2, “Diagnostic test” (priority 2004, dated 2012)

System: PBMCs from healthy unexposed BCG-vaccinated donors
Type: cell-based, human

Sequence	response of BCG-vaccinated unexposed donor to individual peptide
AAKLAGLVFPQPPAP (listed as Mycobacterium tuberculosis) [16-30, from Rv3878]	responded
DTFYDRAQEYSQVLQ (listed as Mycobacterium tuberculosis) [26-40, from Rv3879c, pool 1]	responded
ESLVSDGLPGVKAAL (listed as Mycobacterium tuberculosis) [61-75, from Rv3878]	responded
LDPGASQSTTNPIFG (listed as Mycobacterium tuberculosis) [peptide 174-188, from Rv3873]	responded
LTATNFFGINTIPIA [119-133]	responded
YFIRMWNQAALAMEV (listed as Mycobacterium tuberculosis) [139-153, from pool 2 of Rv3873]	responded
